Experiment [1] deals with T1, hCAII (Homo sapiens, UniProt P00918). Put plainly: hCAII activity assay. Format: biochemical.
The subject of experiment [2] is matrix metalloproteinases. The conditions noted are these: cited from earlier work.
For experiment [3], the target named is T1, hCAII. The conditions noted are these: aliphatic thiols; cited from earlier work.

In the case of `[O-][n+]1ccccc1S` [1,2-HOPTO, 1-hydroxypyridine-2-(1H)-thione], the “fold more potent than 1,2-HOPO” value (on hCAII [1] (against hCAII); in experiment [2]) was ~50 fold in each case.
For `OCCS` [2-mercaptoethanol], the “inhibitory activity against hCAII (in words)” value at hCAII [3] is reported as “lack inhibitory activity”.
Turning to `Cc1cccn(O)c1=S` [3-CH3-1,2-HOPTO], the “fold increase in potency over unsubstituted 1,2-HOPTO” value at hCAII [1] (against hCAII) is listed as > 10 fold.
In the case of `Cc1cc(C)n(O)c(=S)c1` [4,6-CH3-1,2-HOPTO], the “fold decrease in potency/affinity relative to 4-CH3-1,2-HOPTO” value at hCAII [1] (against hCAII) is listed as > 20 fold.
As for `Cc1ccnc(S)c1` [4-CH3-2MPyr, 2-Mercapto-4-methylpyridine], the “fold decrease in potency/affinity relative to 4-CH3-1,2-HOPTO” value on hCAII [1] (against hCAII) is ~200 fold.
For `On1c(C(F)(F)F)cccc1=S` [6-CF3-1,2-HOPTO], the “inhibition of hCAII (in words)” value against hCAII [1] is on record as “all activity is lost”.
For the compound `Cc1cccc(=S)n1O` [6-CH3-1,2-HOPTO], the “fold decrease in potency relative to 1,2-HOPTO” value on hCAII [1] (against hCAII) was found to be 5 fold.
